Experiments:
mouse H3R = mouse H3R (Mus musculus, UniProt P58406); assay: receptor binding
[1] = biological target: human histamine H3 receptor (hH3R) (Homo sapiens, UniProt Q9Y5N1); assay: [3H]-Nα-methylhistamine competition binding; conditions: for pK i trans ± SEM: kept in dark, >99 % trans
rat H3R = rat H3R (Rattus norvegicus, UniProt Q9QYN8); assay: receptor binding
rat H3R, sequence (Q9QYN8 whole entry): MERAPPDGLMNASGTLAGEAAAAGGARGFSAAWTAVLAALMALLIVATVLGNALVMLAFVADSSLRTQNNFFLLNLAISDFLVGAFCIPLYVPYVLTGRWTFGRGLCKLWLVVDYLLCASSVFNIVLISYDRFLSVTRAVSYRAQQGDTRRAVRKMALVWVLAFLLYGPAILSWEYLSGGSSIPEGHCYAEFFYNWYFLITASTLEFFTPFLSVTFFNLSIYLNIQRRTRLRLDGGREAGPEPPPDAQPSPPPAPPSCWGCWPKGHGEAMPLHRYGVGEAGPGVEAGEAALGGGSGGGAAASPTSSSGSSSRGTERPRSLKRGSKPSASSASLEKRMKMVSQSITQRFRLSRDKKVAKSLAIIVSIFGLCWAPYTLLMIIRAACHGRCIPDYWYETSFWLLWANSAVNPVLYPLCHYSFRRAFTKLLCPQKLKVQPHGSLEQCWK

human histamine H3 receptor (hH3R), sequence (Q9Y5N1 whole entry): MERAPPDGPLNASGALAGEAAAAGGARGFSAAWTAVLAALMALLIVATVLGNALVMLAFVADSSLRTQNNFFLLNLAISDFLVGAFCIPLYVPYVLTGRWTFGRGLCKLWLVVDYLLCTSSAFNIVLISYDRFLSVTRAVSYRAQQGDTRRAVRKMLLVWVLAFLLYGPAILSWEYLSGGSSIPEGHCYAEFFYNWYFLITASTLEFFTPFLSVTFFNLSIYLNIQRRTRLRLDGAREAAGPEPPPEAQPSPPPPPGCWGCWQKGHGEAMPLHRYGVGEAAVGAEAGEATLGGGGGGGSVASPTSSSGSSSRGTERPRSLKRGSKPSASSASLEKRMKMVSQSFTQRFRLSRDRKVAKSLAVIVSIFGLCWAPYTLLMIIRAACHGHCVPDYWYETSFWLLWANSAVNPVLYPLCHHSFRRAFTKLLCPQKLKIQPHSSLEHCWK
mouse H3R, sequence (P58406 whole entry): as the sequence (Q9QYN8 whole entry) above, with T15A, A286T, A290G, R387H, I389V counted along it

Row | SMILES | Ki [1] | other results
1 | c1ccc(/N=N\c2cccc(Cc3c[nH]cn3)c2)cc1 [compound 65, cis-65 (PSS cis)] | 32.4 nM | pKi (mouse H3R; PSS cis): high nM (trans) to low μM (PSS cis) binding affinities for both mouse and rat; pKi (rat H3R; PSS cis): high nM (trans) to low μM (PSS cis) binding affinities for both mouse and rat
2 | c1ccc(/N=N/c2cccc(Cc3c[nH]cn3)c2)cc1 [compound 65, trans-65] | 3.8 nM | pKi (mouse H3R; trans): high nM (trans) to low μM (PSS cis) binding affinities for both mouse and rat; pKi (rat H3R; trans): high nM (trans) to low μM (PSS cis) binding affinities for both mouse and rat
3 | Fc1ccccc1/N=N\c1cccc(Cc2c[nH]cn2)c1 [compound 66, 66 cis (PSS cis)] | 81.3 nM | –
4 | Fc1ccccc1/N=N/c1cccc(Cc2c[nH]cn2)c1 [compound 66, 66 trans] | 5.25 nM | –
5 | Fc1cccc(/N=N\c2cccc(Cc3c[nH]cn3)c2)c1 [compound 67, 67 cis (PSS cis)] | 38 nM | –
6 | Fc1cccc(/N=N/c2cccc(Cc3c[nH]cn3)c2)c1 [compound 67, 67 trans] | 4.47 nM | –
7 | Fc1ccc(/N=N\c2cccc(Cc3c[nH]cn3)c2)cc1 [compound 68, 68 cis (PSS cis)] | 309 nM | –
8 | Fc1ccc(/N=N/c2cccc(Cc3c[nH]cn3)c2)cc1 [compound 68, 68 trans] | 20.4 nM | –
9 | Fc1cccc(F)c1/N=N\c1cccc(Cc2c[nH]cn2)c1 [compound 69, 69 cis (PSS cis)] | 55 nM | –
10 | Fc1cccc(F)c1/N=N/c1cccc(Cc2c[nH]cn2)c1 [compound 69, 69 trans] | 10 nM | –
11 | Clc1ccccc1/N=N\c1cccc(Cc2c[nH]cn2)c1 [compound 70, 70 cis (PSS cis)] | 141 nM | –
12 | Clc1ccccc1/N=N/c1cccc(Cc2c[nH]cn2)c1 [compound 70, 70 trans] | 13.8 nM | –
13 | Clc1ccc(/N=N\c2cccc(Cc3c[nH]cn3)c2)cc1 [compound 71, 71 cis (PSS cis)] | 1050 nM | –
14 | Clc1ccc(/N=N/c2cccc(Cc3c[nH]cn3)c2)cc1 [compound 71, 71 trans] | 174 nM | –
15 | Cc1c(Cc2c[nH]cn2)cccc1/N=N\c1ccccc1 [compound 72, 72 cis (PSS cis)] | 3550 nM | –
16 | Cc1c(Cc2c[nH]cn2)cccc1/N=N/c1ccccc1 [compound 72, 72 trans] | 2690 nM | –
17 | Cc1ccc(/N=N/c2ccccc2)cc1Cc1c[nH]cn1 [compound 73, 73 trans] | – | pK i trans ± SEM [1]: 6.90±0.06
18 | Cc1cc(Cc2c[nH]cn2)cc(/N=N\c2ccccc2)c1 [compound 74, 74 cis (PSS cis)] | 7410 nM | –
19 | Cc1cc(Cc2c[nH]cn2)cc(/N=N/c2ccccc2)c1 [compound 74, 74 trans] | 1780 nM | –
20 | Cc1ccc(Cc2c[nH]cn2)cc1/N=N/c1ccccc1 [compound 75, 75 trans] | – | pK i trans ± SEM [1]: 7.15±0.03
21 | Cc1ccccc1/N=N\c1cccc(Cc2c[nH]cn2)c1 [compound 76, 76 cis (PSS cis)] | 398 nM | –
22 | Cc1ccccc1/N=N/c1cccc(Cc2c[nH]cn2)c1 [compound 76, 76 trans] | 19.1 nM | –
23 | Cc1cccc(/N=N\c2cccc(Cc3c[nH]cn3)c2)c1 [compound 77, 77 cis (PSS cis)] | 347 nM | –
24 | Cc1cccc(/N=N/c2cccc(Cc3c[nH]cn3)c2)c1 [compound 77, 77 trans] | 40.7 nM | –
25 | Cc1ccc(/N=N\c2cccc(Cc3c[nH]cn3)c2)cc1 [compound 78, 78 cis (PSS cis)] | 1950 nM | –
26 | Cc1ccc(/N=N/c2cccc(Cc3c[nH]cn3)c2)cc1 [compound 78, 78 trans] | 1910 nM | –
27 | Fc1ccc(/N=N/c2ccccc2)cc1Cc1c[nH]cn1 [compound 79, 79 trans] | – | pK i trans ± SEM [1]: 7.81±0.07
28 | Fc1ccc(Cc2c[nH]cn2)cc1/N=N/c1ccccc1 [compound 80, 80 trans] | – | pK i trans ± SEM [1]: 8.39±0.06

From publication PMC6563694 (Angewandte Chemie (International Ed. in English), 2019)
